Measurements taken from patent publication US20090010888A1, “Use of cytochrome P450 reductase as insecticidal target” (priority 2004, published 2009).
Several values for one entry are separate records, joined by “and”; a condition that tells them apart may be missing. Equal entries are not always repeated. Where two headings read alike, the source gives them in different places.

Key:
human CPR = target: T1, human CPR (Homo sapiens, UniProt P16435); assay: Cytochrome c reduction by purified human CPR (inhibition and kinetics); type: biochemical; details: for IC50: 25° C., 50 μM cytochrome c, 15 μM NADPH
T1 sequence (P16435 43-677 limits assumed): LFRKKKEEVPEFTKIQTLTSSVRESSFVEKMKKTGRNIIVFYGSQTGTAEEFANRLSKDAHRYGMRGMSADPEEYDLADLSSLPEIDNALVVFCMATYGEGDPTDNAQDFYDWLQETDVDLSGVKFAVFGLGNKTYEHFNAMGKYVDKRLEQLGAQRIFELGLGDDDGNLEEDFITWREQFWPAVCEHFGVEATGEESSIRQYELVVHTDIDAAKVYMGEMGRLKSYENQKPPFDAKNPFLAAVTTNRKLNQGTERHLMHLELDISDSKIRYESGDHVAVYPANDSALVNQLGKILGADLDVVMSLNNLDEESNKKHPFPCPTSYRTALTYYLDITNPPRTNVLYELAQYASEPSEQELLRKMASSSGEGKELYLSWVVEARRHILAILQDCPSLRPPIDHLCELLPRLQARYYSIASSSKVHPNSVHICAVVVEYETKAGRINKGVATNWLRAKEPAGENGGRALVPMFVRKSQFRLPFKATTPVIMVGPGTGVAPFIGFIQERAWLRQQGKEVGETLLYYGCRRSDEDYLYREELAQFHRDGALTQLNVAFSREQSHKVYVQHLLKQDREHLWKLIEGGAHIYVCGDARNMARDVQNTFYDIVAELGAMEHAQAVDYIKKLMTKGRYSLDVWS
Method: (§1) Errors are deviation from the fit of the curve (GraFit 5.06).
(§2) Cytochrome c assays and enzyme kinetic measurements were carried out 25° C. as described^19, using 0.75 pmol purified AgCPR or hCPR. Apparent kinetic parameters (non-linear fitting: Michaelis-Menten equation) and IC50 values were calculated using GraFit version 5.06.

A. gambiae CPR [1] = target: T2, A. gambiae CPR (Anopheles gambiae, UniProt Q86QH5, H459Y/V230A); assay: biochemical; type: biochemical
Method: as §1, §2

[2] = system: A. gambiae CYP6Z2 and AgCPR; assay: 7-benzyloxyresorufin (BR) dealkylation, E. coli membranes coexpressing CYP6Z2 and AgCPR; details: read-out: IC50 for inhibition of mosquito CYP6Z2 BR dealkylation; 5 μM BR, 125 microM NADPH, 37° C.
Method: (§3) Measurement of P450 activity was carried out using E. coli membranes coexpressing A. gambiae CYP6Z2 and AgCPR or human CYP3A4 and human CPR. […] Rates were recorded for 5 min at 37° C. using a fluorescence plate reader (Labsystems Fluoroskan Ascent-FL) set to measure λEx 530 λEm585 (BR assay) or λEx 405 λEm530 (BQ assay). Percentage activities were calculated and IC50 curves were plotted using GraFit version 5.
(§4) For P450 assays, E. coli membranes co-expressing human CYP3A4 and CPR were produced as described. […] Plates were preincubated for 5 min at 37° C. before addition of 5 μl of 5 mM NADPH. Rates were recorded for 5 min at 37° C. using a fluorescence plate reader (Labsystems Fluoroskan Ascent-FL) set to measure λEx 530 λEm585 (BR assay) or λEx 405 λEm530 (BQ assay).
(§5) Percentage activities were calculated and IC50 curves were plotted using GraFit version 5.

[3] = target: T3, human CYP3A4 and human CPR (Homo sapiens, UniProt P16435)
T3 sequence (P16435 1-677): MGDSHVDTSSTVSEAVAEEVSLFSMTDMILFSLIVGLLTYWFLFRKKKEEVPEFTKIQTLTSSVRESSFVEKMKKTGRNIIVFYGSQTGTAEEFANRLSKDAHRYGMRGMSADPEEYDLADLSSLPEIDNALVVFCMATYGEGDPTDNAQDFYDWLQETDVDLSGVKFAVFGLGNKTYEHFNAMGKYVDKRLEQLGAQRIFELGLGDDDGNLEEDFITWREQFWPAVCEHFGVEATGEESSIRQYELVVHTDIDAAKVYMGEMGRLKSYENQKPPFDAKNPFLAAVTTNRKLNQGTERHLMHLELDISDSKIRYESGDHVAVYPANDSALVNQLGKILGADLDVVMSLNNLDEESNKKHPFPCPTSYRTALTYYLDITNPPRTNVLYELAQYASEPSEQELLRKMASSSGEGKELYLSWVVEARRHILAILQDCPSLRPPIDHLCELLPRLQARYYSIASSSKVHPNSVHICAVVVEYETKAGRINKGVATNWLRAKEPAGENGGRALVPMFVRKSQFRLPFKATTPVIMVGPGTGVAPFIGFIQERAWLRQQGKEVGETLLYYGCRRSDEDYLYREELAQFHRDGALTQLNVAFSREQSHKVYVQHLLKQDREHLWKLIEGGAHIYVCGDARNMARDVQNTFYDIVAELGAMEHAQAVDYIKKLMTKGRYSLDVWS
Method: as §3, §4, §5

A. gambiae CPR [4] = target: T2, A. gambiae CPR; assay: 2′-5′-ADP Sepharose binding of CPR from whole fly extracts; details: crude extracts of A. gambiae
Method: 0.1 g of frozen adult A. gambiae or D. melanogaster flies were added to a pre-chilled mortar and ground to a powder in the presence of liquid nitrogen. The powder was transferred to a 50 ml Falcon tube and 2.5 mls of cold solubilisation buffer (20 mM Tris-Cl pH 8; 10% glycerol; 100 mM KCl and 20 mM CHAPS) added. The suspensions were mixed on a rotary wheel at 4° C. for 2 hrs to solubilise the membrane bound proteins, then centrifuged (5 min; 12,000 rpm; 4° C.) to clarify. […] The clarified whole fly protein extracts were applied to the column and the flow-through collected. The column was washed with 5 ml of solubilisation buffer to remove non-binding proteins. To elute the bound proteins, 3×200 μl of 50 mM 2′ AMP in 0.5×solubilisation buffer was added to the mini-columns, and the 3×200 μl elution fractions collected in Eppendorf tubes. To detect CPR, 25 μl each of solubilised pre-column extract (total fly protein); flow through (unbound protein) and eluted proteins were run on a NuPAGE 4-12% Bis-Tris Gel (Invitrogen; UK) and transferred onto Protran® nitrocellulose membrane (Schleicher & Schuell; Germany) according to the manufacturer's instructions. The membrane was blocked overnight at 4° C. in TBST & 5% milk powder, then incubated for 1 hr with a 1:10000 dilution of anti-Ag CPR primary antibody. […]

T2 sequence (Q86QH5 entry or part of it V230A/H459Y): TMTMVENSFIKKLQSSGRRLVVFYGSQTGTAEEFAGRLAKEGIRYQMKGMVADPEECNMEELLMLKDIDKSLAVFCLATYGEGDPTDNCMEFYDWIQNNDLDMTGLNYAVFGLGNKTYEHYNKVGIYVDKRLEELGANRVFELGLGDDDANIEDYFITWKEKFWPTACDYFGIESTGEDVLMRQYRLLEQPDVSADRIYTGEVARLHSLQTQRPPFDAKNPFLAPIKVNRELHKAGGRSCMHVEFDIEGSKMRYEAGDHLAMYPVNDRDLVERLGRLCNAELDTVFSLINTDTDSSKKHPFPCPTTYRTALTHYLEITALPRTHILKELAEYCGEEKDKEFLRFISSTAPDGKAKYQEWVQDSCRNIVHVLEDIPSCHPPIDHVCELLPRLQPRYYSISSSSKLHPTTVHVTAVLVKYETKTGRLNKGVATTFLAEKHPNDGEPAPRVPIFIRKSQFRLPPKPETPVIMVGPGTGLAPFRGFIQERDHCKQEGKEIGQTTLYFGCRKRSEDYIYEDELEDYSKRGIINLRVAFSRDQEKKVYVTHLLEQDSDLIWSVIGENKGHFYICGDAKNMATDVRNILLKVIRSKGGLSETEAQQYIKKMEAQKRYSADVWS

cytochrome c gave a Km (human CPR; human enzyme, read-out: Km cytc) of 19 µM and a Km (A. gambiae CPR [1]; mosquito enzyme, read-out: Km cytc) of 23 µM.

Compound `c1ccc([I+]c2ccccc2)cc1` [DPI, diphenyliodonium chloride] has an IC50 (human CPR; human CPR) of 361 µM and an IC50 (A. gambiae CPR [1]) of 28 µM.

For `NC(=O)C1=CN([C@@H]2O[C@H](COP(=O)(O)OP(=O)(O)OC[C@H]3O[C@@H](n4cnc5c(N)ncnc54)[C@H](OP(=O)(O)O)[C@@H]3O)[C@@H](O)[C@H]2O)C=CC1` [NADPH, reduced form of nicotinamide adenine dinucleotide phosphate], the Km (human CPR; human CPR, read-out: Km NADPH (apparent)) was 14 µM and 15 µM and the Km (A. gambiae CPR [1]; read-out: Km NADPH (apparent)) was 30 µM.

Work on 2′,5′-ADP [2′-5′-ADP] yielded an IC50 [2] of 234 µM, an IC50 (human CPR; human CPR) of 28 µM and an IC50 [3] of 10 µM. The “binding of CPR to 2′-5′-ADP (Sepharose)” value (A. gambiae CPR [4]) was “does not bind”.
